# Where two headings read alike, the source gives them in different places.
# Assays:
# Type in all cases: physicochemical
# [1] = Solubility measurement of Form I in solvent systems (HPLC); details: organic solvent or mixture, thermodynamic from solid
# Description: Form I waw found to be completely soluble (>50 mg/mL) in many solvents including DMF (50° C.), DCM, chloroform, DMSO, and DCM/MeOH (9/1) at 25° C. and 50° C.
# [2] = Conversion of Form II to Form I in different solvents
# Description: The Form II was converted to Form I in acetonitrile, ethanol and IPA respectively as described in Table 13.
# [3] = Solubility measurement of Form I in solvent systems (HPLC); details: for solubility at 24 h: organic solvent or mixture, thermodynamic from solid, stirred 24 h, HPLC; for solubility (in words): 25° C.
structure (smiles),measurement,setting,value
CCN1C(=O)N(c2c(F)c(OC)cc(OC)c2F)Cc2cnc3[nH]c(CN4CCOCC4)cc3c21 [Form VIII],solubility at 24 h,"[1]; 25 °C, solvent Acetone, stirred 24 h, HPLC, read-out: Solubility at 25° C.",2680 µg/mL
CCN1C(=O)N(c2c(F)c(OC)cc(OC)c2F)Cc2cnc3[nH]c(CN4CCOCC4)cc3c21 [Form VII],solubility at 24 h,"[1]; 25 °C, solvent MIBK, stirred 24 h, HPLC, read-out: Solubility at 25° C.",430 µg/mL
CCN1C(=O)N(c2c(F)c(OC)cc(OC)c2F)Cc2cnc3[nH]c(CN4CCOCC4)cc3c21 [Form XI],solubility at 24 h,"[1]; 25 °C, solvent Ethyl formate, stirred 24 h, HPLC, read-out: Solubility at 25° C.",4160 µg/mL
CCN1C(=O)N(c2c(F)c(OC)cc(OC)c2F)Cc2cnc3[nH]c(CN4CCOCC4)cc3c21 [Form II],Conversion result (solid form),[2]; 18 mg Form II in EtOH (0.7 mL),Form I
same,Conversion result (solid form),[2]; 18 mg Form II in IPA (0.7 mL),Form I
same,Conversion result (solid form),[2]; 18 mg Form II in MeCN (0.7 mL),Form I
same,solubility at 24 h,"[3]; 25 °C, solvent Dichloromethane, read-out: Solubility at 25° C.",> 50000 µg/mL
CCN1C(=O)N(c2c(F)c(OC)cc(OC)c2F)Cc2cnc3[nH]c(CN4CCOCC4)cc3c21 [Form IX],solubility at 24 h,"[1]; 25 °C, solvent MTBE, stirred 24 h, HPLC, read-out: Solubility at 25° C.",50 µg/mL
CCN1C(=O)N(c2c(F)c(OC)cc(OC)c2F)Cc2cnc3[nH]c(CN4CCOCC4)cc3c21 [Form X],solubility at 24 h,"[3]; 25 °C, solvent EtOAc, read-out: Solubility at 25° C.",700 µg/mL
CCN1C(=O)N(c2c(F)c(OC)cc(OC)c2F)Cc2cnc3[nH]c(CN4CCOCC4)cc3c21 [Form XIII],solubility at 24 h,"[3]; 50 °C, solvent THF, read-out: Solubility at 50° C.",10000 µg/mL
CCN1C(=O)N(c2c(F)c(OC)cc(OC)c2F)Cc2cnc3[nH]c(CN4CCOCC4)cc3c21 [Form III],solubility at 24 h,"[1]; 50 °C, solvent 1,4-Dioxane, stirred 24 h, HPLC, read-out: Solubility at 50° C.",5690 µg/mL
same,solubility at 24 h,"[3]; 25 °C, solvent 1,4-Dioxane, read-out: Solubility at 25° C.",2230 µg/mL
CCN1C(=O)N(c2c(F)c(OC)cc(OC)c2F)Cc2cnc3[nH]c(CN4CCOCC4)cc3c21 [Form I],solubility at 24 h,"[1]; 25 °C, solvent 1-Propanol, stirred 24 h, HPLC, read-out: Solubility at 25° C.",1160 µg/mL
same,solubility at 24 h,"[1]; 25 °C, solvent DCM/MeOH (9/1), stirred 24 h, HPLC, read-out: Solubility at 25° C.",> 50000 µg/mL
same,solubility at 24 h,"[1]; 25 °C, solvent IPAc, stirred 24 h, HPLC, read-out: Solubility at 25° C.",880 µg/mL
same,solubility at 24 h,"[1]; 25 °C, solvent Toluene, stirred 24 h, HPLC, read-out: Solubility at 25° C.",450 µg/mL
same,solubility at 24 h,"[1]; 50 °C, solvent 1-Propanol, stirred 24 h, HPLC, read-out: Solubility at 50° C.",2500 µg/mL
same,solubility at 24 h,"[1]; 50 °C, solvent Chloroform, stirred 24 h, HPLC, read-out: Solubility at 50° C.",> 50000 µg/mL
same,solubility at 24 h,"[1]; 50 °C, solvent Dichloromethane, stirred 24 h, HPLC, read-out: Solubility at 50° C.",> 50000 µg/mL
same,solubility at 24 h,"[1]; 50 °C, solvent EtOAc, stirred 24 h, HPLC, read-out: Solubility at 50° C.",2260 µg/mL
same,solubility at 24 h,"[1]; 50 °C, solvent MeCN, stirred 24 h, HPLC, read-out: Solubility at 50° C.",8390 µg/mL
same,solubility at 24 h,"[1]; 50 °C, solvent Methanol, stirred 24 h, HPLC, read-out: Solubility at 50° C.",2050 µg/mL
same,solubility at 24 h,"[1]; DMF (50° C.), DCM, chloroform, DMSO, DCM/MeOH (9/1) at 25° C. and 50° C., read-out: completely soluble",> 50000 µg/mL
same,solubility,"[1]; DMSO, 25° C., slurry obtained after stirring the clear solution of 60 mg Form I in 1 mL DMSO, read-out: solubility of the saturated solution",6130 µg/mL
same,solubility at 24 h,"[3]; 25 °C, solvent 2-Methoxyethanol, read-out: Solubility at 25° C.",15300 µg/mL
same,solubility at 24 h,"[3]; 25 °C, solvent Chloroform, read-out: Solubility at 25° C.",> 50000 µg/mL
same,solubility at 24 h,"[3]; 25 °C, solvent DMF, read-out: Solubility at 25° C.",42000 µg/mL
same,solubility at 24 h,"[3]; 25 °C, solvent DMSO, read-out: Solubility at 25° C.",> 50000 µg/mL
same,solubility at 24 h,"[3]; 25 °C, solvent EtOH, read-out: Solubility at 25° C.",970 µg/mL
same,solubility at 24 h,"[3]; 25 °C, solvent IPA/water (4/1), read-out: Solubility at 25° C.",5350 µg/mL
same,solubility at 24 h,"[3]; 25 °C, solvent IPA, read-out: Solubility at 25° C.",560 µg/mL
same,solubility at 24 h,"[3]; 25 °C, solvent Isobutyl acetate, read-out: Solubility at 25° C.",460 µg/mL
same,solubility at 24 h,"[3]; 25 °C, solvent MEK, read-out: Solubility at 25° C.",1200 µg/mL
same,solubility at 24 h,"[3]; 25 °C, solvent MeCN, read-out: Solubility at 25° C.",5390 µg/mL
same,solubility at 24 h,"[3]; 25 °C, solvent THF, read-out: Solubility at 25° C.",4110 µg/mL
same,solubility at 24 h,"[3]; 25 °C, solvent n-BuOH, read-out: Solubility at 25° C.",820 µg/mL
same,solubility at 24 h,"[3]; 50 °C, solvent 2-Methoxyethanol, read-out: Solubility at 50° C.",20500 µg/mL
same,solubility at 24 h,"[3]; 50 °C, solvent Acetone, read-out: Solubility at 50° C.",6670 µg/mL
same,solubility at 24 h,"[3]; 50 °C, solvent DCM/MeOH (9/1), read-out: Solubility at 50° C.",> 50000 µg/mL
same,solubility at 24 h,"[3]; 50 °C, solvent DMF, read-out: Solubility at 50° C.",> 50000 µg/mL
same,solubility at 24 h,"[3]; 50 °C, solvent DMSO, read-out: Solubility at 50° C.",> 50000 µg/mL
same,solubility at 24 h,"[3]; 50 °C, solvent EtOH, read-out: Solubility at 50° C.",2730 µg/mL
same,solubility at 24 h,"[3]; 50 °C, solvent Ethyl formate, read-out: Solubility at 50° C.",15300 µg/mL
same,solubility at 24 h,"[3]; 50 °C, solvent IPA/water (4/1), read-out: Solubility at 50° C.",8770 µg/mL
same,solubility at 24 h,"[3]; 50 °C, solvent IPA, read-out: Solubility at 50° C.",1370 µg/mL
same,solubility at 24 h,"[3]; 50 °C, solvent IPAc, read-out: Solubility at 50° C.",1330 µg/mL
same,solubility at 24 h,"[3]; 50 °C, solvent Isobutyl acetate, read-out: Solubility at 50° C.",580 µg/mL
same,solubility at 24 h,"[3]; 50 °C, solvent MEK, read-out: Solubility at 50° C.",3220 µg/mL
same,solubility at 24 h,"[3]; 50 °C, solvent MIBK, read-out: Solubility at 50° C.",1120 µg/mL
same,solubility at 24 h,"[3]; 50 °C, solvent MTBE, read-out: Solubility at 50° C.",190 µg/mL
same,solubility at 24 h,"[3]; 50 °C, solvent Toluene, read-out: Solubility at 50° C.",820 µg/mL
same,solubility at 24 h,"[3]; 50 °C, solvent n-BuOH, read-out: Solubility at 50° C.",1650 µg/mL
same,solubility (in words),"[3]; MTBE, toluene, IPAc, methanol, and IPA",sparingly soluble
same,solubility (in words),"[3]; water, heptane and hexane",almost insoluble
CCN1C(=O)N(c2c(F)c(OC)cc(OC)c2F)Cc2cnc3[nH]c(CN4CCOCC4)cc3c21 [Form VI],solubility at 24 h,"[3]; 25 °C, solvent Methanol, read-out: Solubility at 25° C.",640 µg/mL

# Source: patent US12552792B2, “Solid forms of an FGFR inhibitor and processes for preparing the same” (Incyte Corporation, priority 2018, dated 2026)
